From patent US8063219B2, “Nitrogenous heterocyclic compounds, preparation thereof and use thereof as antibacterial medicaments” (Novexel, priority 2007, dated 2011)
In brackets after ≈: the same amount, converted by molar mass.

Experiments:
Assay in all cases: In vitro activity, dilution method in liquid medium (MIC)
Format in all cases: cell-based
[1] = test system: Pseudomonas aeruginosa 1771 strains wild type; settings: for Activity against Pseudomonas aeruginosa (in words): in vitro
Method: (§1) A series of tubes are prepared in which equal quantities of sterile nutrient medium are placed, and increasing quantities of the product being studied are placed in each tube then each tube is plated with a bacterial strain. After 24 hours incubation in an oven at 37° C., the growth inhibition is assessed by transillumination, which makes it possible to determine the minimum inhibition concentrations (MIC) expressed in μg/ml.
Tests are carried out in this way with the products of Examples 1 and 2 and compared with the products of Examples and 19 of application WO 02/100860.

[2] = test system: Pseudomonas aeruginosa strains resisting via β-lactamases; settings: Resisting via β-lactamases [8 strains]
Method: as §1

[3] = test system: Pseudomonas aeruginosa strains resisting via efflux pumps
Method: as §1

[4] = test system: Pseudomonas aeruginosa strain resisting via porin mutations; settings: for MIC (μg/ml) 24 h: Resisting via porin mutations [1 strain]
Method: as §1

[5] = test system: Pseudomonas aeruginosa PA01 wild type
Method: as §1

[6] = Pseudomonas aeruginosa, 24 h, read-out: MIC (μg/ml) 24 h
[7] = 1771 strains wild type, 24 h incubation at 37° C.
[8] = Resisting via efflux pumps, second set [5 strains]

Compound | MIC ([1]; Pseudomonas aeruginosa, 1771 strains wild type, 24 h incubation at 37° C., read-out: MIC (μg/ml) 24 h) [µg/mL] | MIC [2, 6] [µg/mL] | MIC [3, 6] [µg/mL] | MIC [4, 6] [µg/mL] | MIC ([5]; Pseudomonas aeruginosa, PA01WILDTYPE, 24 h, read-out: MIC (μg/ml) 24 h) [µg/mL] | MIC (μg/ml) 24 h [1, 7] [µg/mL] | Activity against Pseudomonas aeruginosa (in words) [1] | MIC (μg/ml) 24 h [2] [µg/mL] | MIC (μg/ml) 24 h [3, 8] | MIC (μg/ml) 24 h ([3]; Resisting via efflux pumps, first set [11 strains]) [µg⁻¹ mL⁻¹] | MIC (μg/ml) 24 h [4] [µg/mL] | MIC (μg/ml) 24 h [5] [µg/mL] | MIC (μg/ml) 24 h ([3]; Resisting via efflux pumps [11/5 strains], set not given)
C[C@@H](O)[C@H]1C(=O)N2C(C(=O)O)=C(SCCN=CN)C[C@H]12 [Imipenem, reference compound] | 1 (≈ 3.34 µM) | 2 to 32 (≈ 6.68 to 107 µM) | 0.25 to 4 (≈ 0.835 to 13.4 µM) | 16 (≈ 53.4 µM) | 1 (≈ 3.34 µM) | – | – | – | – | – | – | – | –
The sodium and trifluoroacetate salt of trans[[8-(amino-methyl)-4,8-dihydro-6-oxo-5-(sulphooxy)-4,7-methano-7H-pyrazolo[3,4-e][1,3]diazepin-6(5H)-one [Ex 2] | – | – | – | – | – | 0.25 | very active | 0.25 to 1 | —/0.5-1 μg/ml | – | – | – | –
sodium and trifluoroacetate salts of trans[[8-(aminomethyl)-4,8-dihydro-1-methyl-6-oxo-5-(sulfooxy)-4,7-methano-7H-pyrazolo[3,4-e][1,3]diazepin-6(5H)-one [Ex 1] | – | – | – | – | – | 0.12 | very active | 1 to 2 | 0.25 to 0.5 µg/mL | 0.5 to 4 | 2 | 1 | –
CC(C)(O/N=C(\C(=O)N[C@@H]1C(=O)N2C(C(=O)[O-])=C(C[n+]3ccccc3)CS[C@H]12)c1csc(N)n1)C(=O)O [Ceftazidine, reference compound] | – | – | – | – | – | 1 (≈ 1.83 µM) | – | 2 to 32 | – | – | 2 (≈ 3.66 µM) | 2 (≈ 3.66 µM) | <=0.03-8 μg/ml
